From ChEMBL document CHEMBL5550152, “Design, synthesis and evaluation of novel prostate-specific membrane antigen-targeted aryl [18F]fluorosulfate PET tracers” (Bioorg Med Chem, 2024)

What was measured:
[1] = Stability of the compound in PBS buffer measured after 4 hrs by radio-HPLC analysis; assay type: physicochemical
[2] = Stability in mouse plasma measured after 4 hrs by radio-HPLC analysis; assay type: ADME, cell-free
[3] = Drug uptake in human 22Rv1 cells at 3.7 10^-2MBq measured after 1 hr relative to control; assay type: ADME, cell-based; conditions: cwr22r
[4] = Drug uptake in human 22Rv1 cells at 3.7 10^-2MBq pretreated with 2-PMPA for 30 mins followed by compound addition and measured after 1 hr relative to control; assay type: ADME, cell-based; conditions: cwr22r
[5] = Drug uptake in human 22Rv1 cells at 3.7 10^-2MBq measured after 4 hrs relative to control; assay type: ADME, cell-based; conditions: cwr22r
[6] = Drug uptake in human 22Rv1 cells at 3.7 10^-2MBq pretreated with 2-PMPA for 30 mins followed by compound addition and measured after 4 hr relative to control; assay type: ADME, cell-based; conditions: cwr22r
[7] = Drug uptake in mouse tumor xenografted with human 22Rv1 cells at 7.4 MBq, iv measured after 2 hrs by PET imaging analysis relative to control; assay type: ADME, organism-based, Neoplasm, CWR22R; conditions: in vivo
[8] = Drug uptake in mouse tumor xenografted with human 22Rv1 cells at 7.4 MBq, iv measured after 4 hrs by PET imaging analysis relative to control; assay type: ADME, organism-based, Neoplasm, CWR22R; conditions: in vivo
[9] = Drug uptake in mouse tumor xenografted with human 22Rv1 cells at 7.4 MBq, iv pretreated with 2-PMPA measured after 2 hrs by PET imaging analysis relative to control; assay type: ADME, organism-based, Neoplasm, CWR22R; conditions: in vivo
[10] = Drug uptake in mouse tumor xenografted with human 22Rv1 cells at 7.4 MBq, iv pretreated with 2-PMPA measured after 4 hrs by PET imaging analysis relative to control; assay type: ADME, organism-based, Neoplasm, CWR22R; conditions: in vivo
[11] = Drug uptake in mouse abdomen xenografted with human 22Rv1 cells at 7.4 MBq, iv measured after 2 to 4 hrs by PET imaging analysis; assay type: ADME, organism-based, CWR22R; conditions: in vivo, time 2-4 hrs
[12] = Drug distribution in nude mouse heart xenografted with human 22Rv1 cells at 8.1 MBq,iv measured after 1 hr; assay type: ADME, tissue-based, CWR22R; conditions: in vivo
[13] = Drug distribution in nude mouse liver xenografted with human 22Rv1 cells at 8.1 MBq,iv measured after 1 hr; assay type: ADME, tissue-based, CWR22R; conditions: in vivo
[14] = Drug distribution in nude mouse spleen xenografted with human 22Rv1 cells at 8.1 MBq,iv measured after 1 hr; assay type: ADME, tissue-based, CWR22R; conditions: in vivo
[15] = Drug distribution in nude mouse lung xenografted with human 22Rv1 cells at 8.1 MBq,iv measured after 1 hr; assay type: ADME, tissue-based, CWR22R; conditions: in vivo
[16] = Drug distribution in nude mouse stomach xenografted with human 22Rv1 cells at 8.1 MBq,iv measured after 1 hr; assay type: ADME, tissue-based, CWR22R; conditions: in vivo
[17] = Drug distribution in nude mouse small intestine xenografted with human 22Rv1 cells at 8.1 MBq,iv measured after 1 hr; assay type: ADME, tissue-based, CWR22R; conditions: in vivo
[18] = Drug distribution in nude mouse large intestine xenografted with human 22Rv1 cells at 8.1 MBq,iv measured after 1 hr; assay type: ADME, tissue-based, CWR22R; conditions: in vivo
[19] = Drug distribution in nude mouse gall bladder xenografted with human 22Rv1 cells at 8.1 MBq,iv measured after 1 hr; assay type: ADME, tissue-based, CWR22R; conditions: in vivo
[20] = Drug distribution in nude mouse brain xenografted with human 22Rv1 cells at 8.1 MBq,iv measured after 1 hr; assay type: ADME, tissue-based, CWR22R; conditions: in vivo
[21] = Drug distribution in nude mouse bone xenografted with human 22Rv1 cells at 8.1 MBq,iv measured after 1 hr; assay type: ADME, tissue-based, Bone element, CWR22R; conditions: in vivo
[22] = Drug distribution in nude mouse muscle tissue xenografted with human 22Rv1 cells at 8.1 MBq,iv measured after 1 hr; assay type: ADME, tissue-based, CWR22R; conditions: in vivo
[23] = Drug distribution in nude mouse blood xenografted with human 22Rv1 cells at 8.1 MBq,iv measured after 1 hr; assay type: ADME, tissue-based, CWR22R; conditions: in vivo
[24] = Drug distribution in nude mouse heart xenografted with human 22Rv1 cells at 8.1 MBq,iv measured after 2 hrs; assay type: ADME, tissue-based, CWR22R; conditions: in vivo
[25] = Drug distribution in nude mouse liver xenografted with human 22Rv1 cells at 8.1 MBq,iv measured after 2 hrs; assay type: ADME, tissue-based, CWR22R; conditions: in vivo
[26] = Drug distribution in nude mouse spleen xenografted with human 22Rv1 cells at 8.1 MBq,iv measured after 2 hrs; assay type: ADME, tissue-based, CWR22R; conditions: in vivo
[27] = Drug distribution in nude mouse lung xenografted with human 22Rv1 cells at 8.1 MBq,iv measured after 2 hrs; assay type: ADME, tissue-based, CWR22R; conditions: in vivo
[28] = Drug distribution in nude mouse kidney xenografted with human 22Rv1 cells at 8.1 MBq,iv measured after 2 hrs; assay type: ADME, tissue-based, CWR22R; conditions: in vivo
[29] = Drug distribution in nude mouse stomach xenografted with human 22Rv1 cells at 8.1 MBq,iv measured after 2 hrs; assay type: ADME, tissue-based, CWR22R; conditions: in vivo
[30] = Drug distribution in nude mouse small intestine xenografted with human 22Rv1 cells at 8.1 MBq,iv measured after 2 hrs; assay type: ADME, tissue-based, CWR22R; conditions: in vivo
[31] = Drug distribution in nude mouse large intestine xenografted with human 22Rv1 cells at 8.1 MBq,iv measured after 2 hrs; assay type: ADME, tissue-based, CWR22R; conditions: in vivo
[32] = Drug distribution in nude mouse gall bladder xenografted with human 22Rv1 cells at 8.1 MBq,iv measured after 2 hrs; assay type: ADME, tissue-based, CWR22R; conditions: in vivo

## COc1cc(C(=O)N[C@@H](CCC(=O)O)C(=O)N[C@@H](CCC(=O)O)C(=O)NCc2ccc(C(=O)N[C@@H](Cc3ccc4ccccc4c3)C(=O)NCCCC[C@H](NC(=O)N[C@@H](CCC(=O)O)C(=O)O)C(=O)O)cc2)ccc1OS(=O)(=O)[18F]
[1]
  Stability: Stable
[2]
  Stability: Stable
[3]
  Drug uptake: 0.72%
[4]
  Drug uptake: 0.53%
[5]
  Drug uptake: 1.19%
[6]
  Drug uptake: 0.26%
[7]
  Drug uptake: 2.85 % ID/g
[8]
  Drug uptake: 3.25 % ID/g
[9]
  Drug uptake: 1.37 % ID/g
[10]
  Drug uptake: 1.4 % ID/g
[11]
  Drug uptake: Active
[12]
  Drug uptake: 1.57 % ID/g
[13]
  Drug uptake: 4.61 % ID/g
[14]
  Drug uptake: 1.85 % ID/g
[15]
  Drug uptake: 3.18 % ID/g
[16]
  Drug uptake: 1.75 % ID/g
[17]
  Drug uptake: 2.58 % ID/g
[18]
  Drug uptake: 2.21 % ID/g
[19]
  Drug uptake: 3.69 % ID/g
[20]
  Drug uptake: 0.15 % ID/g
[21]
  Drug uptake: 2.11 % ID/g
[22]
  Drug uptake: 1.32 % ID/g
[23]
  Drug uptake: 6.43 % ID/g
[24]
  Drug uptake: 0.97 % ID/g
[25]
  Drug uptake: 1.79 % ID/g
[26]
  Drug uptake: 1.23 % ID/g
[27]
  Drug uptake: 1.28 % ID/g
[28]
  Drug uptake: 23.42 % ID/g
[29]
  Drug uptake: 0.95 % ID/g
[30]
  Drug uptake: 1.91 % ID/g
[31]
  Drug uptake: 2.77 % ID/g
[32]
  Drug uptake: 6.05 % ID/g
